Assay results: patent publication US20210246157A1, “CAMPTOTHECIN DERIVATIVES AND PREPARATION METHODS AND APPLICATIONS THEREOF” (priority 2018, published 2021)
Converted amounts (≈) assume the structure as drawn. Where two headings read alike, the source gives them in different places.

What was measured:
[1] = Solubility test, equilibrium method, UV-visible spectrophotometry; format: physicochemical; conditions: thermodynamic from solid
Method: The solubility test is carried out by equilibrium method. […] An appropriate amount of the compound is weighed and dissolved in 1 mL of methanol solution to prepare a control solution with a certain concentration (C0). The concentration of test solution is calculated according to the following formula: Cx=(Ax/A0)C0, wherein Cx is concentration of test solution, Ax is absorbance of test solution, C0 is concentration of control solution, and A0 is absorbance of control solution.

SW-480 = assay: Cytotoxicity test (MTT, 72 h); conditions: Homo sapiens, SW480, 72 h, read-out: 50% Inhibiting Concentration value (IC50)
Method: (§1) Cells at logarithmic growth period are inoculated in a 96-well plate overnight, then drugs with a certain gradient concentrations are added, and incubation is carried out in a cell culture chamber (5% CO2, 37° C.) for 72 h.

HT-29 = assay: Cytotoxicity test (MTT, 72 h); conditions: Homo sapiens, HT-29, 72 h, read-out: 50% Inhibiting Concentration value (IC50)
Method: as §1

HCT-116 = assay: Cytotoxicity test (MTT, 72 h); conditions: Homo sapiens, HCT-116, 72 h, read-out: 50% Inhibiting Concentration value (IC50)
Method: (§2) In order to investigate the antitumor activities of the compounds, a variety of tumor cell lines for test are selected. Cells at logarithmic growth period are inoculated in a 96-well plate overnight, then drugs with a certain gradient concentrations are added, and incubation is carried out in a cell culture chamber (5% CO2, 37° C.) for 72 h.

A549 = assay: Cytotoxicity test (MTT, 72 h); conditions: Homo sapiens, A549, 72 h, read-out: 50% Inhibiting Concentration value (IC50)
Method: as §2

H1975 = assay: Cytotoxicity test (MTT, 72 h); conditions: Homo sapiens, NCI-H1975, 72 h, read-out: 50% Inhibiting Concentration value (IC50)
Method: as §2

HepG2 = assay: Cytotoxicity test (MTT, 72 h); conditions: Homo sapiens, HepG2, 72 h, read-out: 50% Inhibiting Concentration value (IC50)
Method: as §2

BGC-823 = assay: Cytotoxicity test (MTT, 72 h); conditions: Homo sapiens, BGC-823, 72 h, read-out: 50% Inhibiting Concentration value (IC50)
Method: as §2

ECA-109 = assay: Cytotoxicity test (MTT, 72 h); conditions: Homo sapiens, ECa-109, 72 h, read-out: 50% Inhibiting Concentration value (IC50)
Method: as §2

K562 = assay: Cytotoxicity test (MTT, 72 h); conditions: Homo sapiens, K562, 72 h, read-out: 50% Inhibiting Concentration value (IC50)
Method: as §2

PC3 = assay: Cytotoxicity test (MTT, 72 h); conditions: Homo sapiens, PC-3, 72 h, read-out: 50% Inhibiting Concentration value (IC50)
Method: as §2

143B = assay: Cytotoxicity test (MTT, 72 h); conditions: Homo sapiens, read-out: 50% Inhibiting Concentration value (IC50)
Method: as §2

MDA-MB-231 = assay: Cytotoxicity test (MTT, 72 h); conditions: Homo sapiens, MDA-MB-231, 72 h, read-out: 50% Inhibiting Concentration value (IC50)
Method: as §2

Hela = assay: Cytotoxicity test (MTT, 72 h); conditions: Homo sapiens, read-out: 50% Inhibiting Concentration value (IC50)
Method: as §2

TPC-1 = assay: Cytotoxicity test (MTT, 72 h); conditions: Homo sapiens, TPC1, 72 h, read-out: 50% Inhibiting Concentration value (IC50)
Method: as §1

SKOV-3 = assay: Cytotoxicity test (MTT, 72 h); conditions: Homo sapiens, SK-OV-3, 72 h, read-out: 50% Inhibiting Concentration value (IC50)
Method: as §1

PANC-1 = assay: Cytotoxicity test (MTT, 72 h); conditions: Homo sapiens, PANC-1, 72 h, read-out: 50% Inhibiting Concentration value (IC50)
Method: as §1

[2] = aqueous with cosolvent or surfactant or cyclodextrin
[3] = aqueous buffer, PBS pH 7.4, read-out: Solubility in PBS (pH = 7.4)
[4] = aqueous with cosolvent or surfactant or cyclodextrin, 0.1% aqueous solution of Tween-80, read-out: Solubility in 0.1% Tween-80
[5] = saline or isotonic, normal saline, read-out: Solubility in Normal Saline (NS)
[6] = water, read-out: Solubility in Water

Row | SMILES | solubility [1, 2] | solubility ([1]; pH 7.4, aqueous buffer) | solubility ([1]; saline or isotonic) | solubility ([1]; water) | IC50 (SW-480) | IC50 (HT-29) | IC50 (HCT-116) | IC50 (A549) | IC50 (H1975) | IC50 (HepG2) | IC50 (BGC-823) | IC50 (ECA-109) | IC50 (K562) | IC50 (PC3) | IC50 (143B) | IC50 (MDA-MB-231) | IC50 (Hela) | IC50 (TPC-1) | IC50 (SKOV-3) | IC50 (PANC-1) | other results
1 | CCc1c2c(nc3ccc(OC(=O)OCCOCc4cn([C@H]5O[C@@H](CO)[C@H](O)[C@@H](O)[C@@H]5O)nn4)cc13)-c1cc3c(c(=O)n1C2)COC(=O)[C@]3(O)CC [Compound 37] | 360 µg/mL (≈ 497 µM) | 54.4 µg/mL (≈ 75.2 µM) | 725 µg/mL (≈ 1000 µM) | 159 µg/mL (≈ 220 µM) | 0.014 µM | 1.94 µM | 2.34 µM | 13.1 µM | 21.1 µM | 2.19 µM | 1.25 µM | 1.62 µM | 1.95 µM | 10.9 µM | 17.6 µM | 1.82 µM | 12.7 µM | 18.3 µM | 2.63 µM | 13.7 µM | –
2 | CCc1c2c(nc3ccc(OC(=O)OCCOCCOCCOCCOCc4cn([C@H]5O[C@@H](CO)[C@H](O)[C@@H](O)[C@@H]5O)nn4)cc13)-c1cc3c(c(=O)n1C2)COC(=O)[C@]3(O)CC [Compound 42] | 120 µg/mL (≈ 140 µM) | 85.2 µg/mL (≈ 99.6 µM) | 5870 µg/mL (≈ 6860 µM) | 162 µg/mL (≈ 189 µM) | 0.167 µM | 13.5 µM | 3.01 µM | 5.73 µM | 12.8 µM | 0.174 µM | 0.139 µM | 11.3 µM | 2.5 µM | 4.77 µM | 10.6 µM | 0.145 µM | 6.87 µM | 15.3 µM | 0.209 µM | 6.87 µM | –
3 | CCc1c2c(nc3ccc(OC(=O)OCCOCCOCc4cn([C@H]5O[C@@H](CO)[C@H](O)[C@@H](O)[C@@H]5O)nn4)cc13)-c1cc3c(c(=O)n1C2)COC(=O)[C@]3(O)CC [Compound 47] | 650 µg/mL (≈ 846 µM) | 60.8 µg/mL (≈ 79.2 µM) | 511 µg/mL (≈ 665 µM) | 109 µg/mL (≈ 142 µM) | 0.274 µM | 0.694 µM | 0.273 µM | 2.95 µM | 10.8 µM | 2.74 µM | 0.228 µM | 0.578 µM | 0.228 µM | 2.46 µM | 8.96 µM | 2.28 µM | 3.54 µM | 12.9 µM | 3.29 µM | 3.54 µM | –
4 | CCc1c2c(nc3ccc(OC(=O)OCCOCCOCCOCc4cn([C@H]5O[C@@H](CO)[C@H](O)[C@@H](O)[C@@H]5O)nn4)cc13)-c1cc3c(c(=O)n1C2)COC(=O)[C@]3(O)CC [Compound 52] | 320 µg/mL (≈ 394 µM) | 85.2 µg/mL (≈ 105 µM) | 446 µg/mL (≈ 549 µM) | 3050 µg/mL (≈ 3750 µM) | 0.167 µM | 0.859 µM | 0.527 µM | 11.1 µM | 21.8 µM | 8.22 µM | 0.139 µM | 0.716 µM | 0.439 µM | 9.26 µM | 18.1 µM | 6.85 µM | 13.3 µM | 26.1 µM | 9.86 µM | 13.3 µM | –
5 | CCc1c2c(nc3ccc(OC(=O)OCCOCc4cn(CCO[C@H]5O[C@@H](CO)[C@H](O)[C@@H](O)[C@@H]5O)nn4)cc13)-c1cc3c(c(=O)n1C2)COC(=O)[C@]3(O)CC [Compound 56] | 2180 µg/mL (≈ 2830 µM) | 85.2 µg/mL (≈ 111 µM) | 1110 µg/mL (≈ 1440 µM) | 636 µg/mL (≈ 828 µM) | 0.112 µM | 9.39 µM | 0.137 µM | 4.7 µM | 8.25 µM | 10.2 µM | 0.093 µM | 7.83 µM | 0.114 µM | 3.91 µM | 6.88 µM | 8.53 µM | 5.63 µM | 9.9 µM | 12.3 µM | 5.63 µM | –
6 | CCc1c2c(nc3ccc(OC(=O)OCCOCCOCc4cn(CCO[C@H]5O[C@@H](CO)[C@H](O)[C@@H](O)[C@@H]5O)nn4)cc13)-c1cc3c(c(=O)n1C2)COC(=O)[C@]3(O)CC [Compound 57] | 6460 µg/mL (≈ 7950 µM) | 361 µg/mL (≈ 444 µM) | 4290 µg/mL (≈ 5290 µM) | 178 µg/mL (≈ 219 µM) | 0.164 µM | 1.68 µM | 1.39 µM | 20.9 µM | 12.1 µM | 5.15 µM | 0.137 µM | 1.4 µM | 1.16 µM | 17.4 µM | 10.1 µM | 4.29 µM | 15.1 µM | 14.6 µM | 6.17 µM | 22.1 µM | –
7 | CCc1c2c(nc3ccc(OC(=O)OCCOCCOCCOCCOCc4cn(CCO[C@H]5O[C@@H](CO)[C@H](O)[C@@H](O)[C@@H]5O)nn4)cc13)-c1cc3c(c(=O)n1C2)COC(=O)[C@]3(O)CC [Compound 59] | 1200 µg/mL (≈ 1340 µM) | 984 µg/mL (≈ 1090 µM) | 854 µg/mL (≈ 949 µM) | 1480 µg/mL (≈ 1650 µM) | 1.21 µM | 1.13 µM | 1.67 µM | 8.03 µM | 10.5 µM | 2.73 µM | 1.01 µM | 0.939 µM | 1.39 µM | 6.69 µM | 8.77 µM | 2.28 µM | 9.64 µM | 12.6 µM | 3.28 µM | 9.64 µM | –
8 | CCc1c2c(nc3ccc(OC(=O)NCCOCc4cn([C@H]5O[C@@H](CO)[C@H](O)[C@@H](O)[C@@H]5O)nn4)cc13)-c1cc3c(c(=O)n1C2)COC(=O)[C@]3(O)CC [Compound 66] | – | – | – | – | 0.216 µM | 5.11 µM | 0.843 µM | 5.65 µM | 8.46 µM | 1.62 µM | 0.18 µM | 4.26 µM | 0.703 µM | 4.71 µM | 7.05 µM | 1.35 µM | 6.78 µM | 10.2 µM | 1.95 µM | 6.78 µM | solubility [1, 3]: 2880 µg/mL (≈ 3980 µM); solubility [1, 4]: 1140 µg/mL (≈ 1580 µM); solubility [1, 5]: 1590 µg/mL (≈ 2210 µM); solubility [1, 6]: 979 µg/mL (≈ 1350 µM)
9 | CCc1c2c(nc3ccc(OC(=O)NCCOCCOCc4cn([C@H]5O[C@@H](CO)[C@H](O)[C@@H](O)[C@@H]5O)nn4)cc13)-c1cc3c(c(=O)n1C2)COC(=O)[C@]3(O)CC [Compound 73] | – | – | – | – | 0.862 µM | 3.16 µM | 0.879 µM | 5.82 µM | 7.14 µM | 2.42 µM | 0.718 µM | 2.63 µM | 0.733 µM | 4.85 µM | 5.95 µM | 2.02 µM | 6.99 µM | 8.57 µM | 2.91 µM | 6.99 µM | solubility [1, 3]: 414 µg/mL (≈ 540 µM); solubility [1, 4]: 1260 µg/mL (≈ 1650 µM); solubility [1, 5]: 1440 µg/mL (≈ 1880 µM); solubility [1, 6]: 3580 µg/mL (≈ 4670 µM)
10 | CCc1c2c(nc3ccc(OC(=O)NCCOCCOCc4cn(CCO[C@H]5O[C@@H](CO)[C@H](O)[C@@H](O)[C@@H]5O)nn4)cc13)-c1cc3c(c(=O)n1C2)COC(=O)C3(O)CC (some centres unmarked) [Compound 74] | – | – | – | – | 2.06 µM | 7.96 µM | 2.52 µM | 9.42 µM | 6.82 µM | 6.35 µM | 1.72 µM | 6.63 µM | 2.1 µM | 7.85 µM | 5.69 µM | 5.29 µM | 11.3 µM | 8.19 µM | 7.62 µM | 11.3 µM | solubility [1, 3]: 565 µg/mL (≈ 696 µM); solubility [1, 4]: 2750 µg/mL (≈ 3390 µM); solubility [1, 5]: 3950 µg/mL (≈ 4880 µM); solubility [1, 6]: 792 µg/mL (≈ 977 µM)
